{"source": "paper PMC4445981", "about": "“The glutamate transport inhibitor DL-Threo-β-Benzyloxyaspartic acid (DL-TBOA) differentially affects SN38- and oxaliplatin-induced death of drug-resistant colorectal cancer cells” (BMC Cancer, 2015)", "key": {"[1]": {"system": "[3H]-D-Asp uptake (glutamate transporter activity) in LoVo-PAR cells", "assay": "[3H]-D-Asp uptake assay, LoVo-PAR", "type": "cell-based, human", "procedure": "(§1) We therefore next determined glutamate transporter activity (as uptake of the substrate [^3H]-D-Asp following a 6-min incubation in buffer supplemented with a tracer concentration of 100 nM [^3H]-D-Asp). […] To determine which transporter(s) was responsible for the [^3H]-D-Asp uptake, we assessed the effect of DL-TBOA, a nonselective inhibitor of EAATs, and UCPH-101, a specific SLC1A3 inhibitor [16, 28, 29]. […] Basal [^3H]-D-Asp uptake was decreased by about 60 % in SN38-resistant compared to parental HCT116 cells, whereas that in SN38-resistant LoVo cells was nearly tripled compared to parental LoVo cells.\n(§2) The [^3H]-D-Asp uptake assay was performed essentially as in [30]. Briefly, cells were split into poly-D-lysine-coated white 96-well plates (PerkinElmer). A similar number of cells were seeded for HCT116 parental, HCT116-SN38 and HCT116-Oxa cell lines (7 × 10^4 cells/well) and LoVo parental, Lovo-SN38 and Lovo-Oxa cell lines (6 × 10^4 cells/well). 16–24 h later, culture medium was aspirated, and cells were washed once with 100 μl assay buffer (Hank’s Buffered Saline Solution supplemented with 20 mM HEPES, 1 mM CaCl2 and 1 mM MgCl2, pH 7.4). 50 μl assay buffer supplemented with 100 nM [^3H]-D-Asp and test compounds as indicated was added, and the plate was incubated at 37 °C for 6 min. Non-specific [^3H]-D-Asp uptake was determined in wells with 3 mM L-glutamate. The assay mixture was quickly removed, and wells were washed with 2 × 100 μl ice-cold assay buffer, followed by 150 μl Microscint™20 scintillation fluid (PerkinElmer). The plate was shaken for 1 h and counted in a Wallac 1450 MicroBeta Trilux scintillation counter (GMI, Ramsey, MN)."}, "[2]": {"system": "[3H]-D-Asp uptake (glutamate transporter activity) in LoVo-SN38 cells", "assay": "[3H]-D-Asp uptake assay, LoVo-SN38", "type": "cell-based, human", "procedure": "as §1, §2"}, "[3]": {"system": "[3H]-D-Asp uptake (glutamate transporter activity) in HCT116-SN38 cells", "assay": "[3H]-D-Asp uptake assay, HCT116-SN38", "type": "cell-based, human", "procedure": "as §1, §2"}, "[4]": {"system": "[3H]-D-Asp uptake (glutamate transporter activity) in HCT116-PAR cells", "assay": "[3H]-D-Asp uptake assay, HCT116-PAR", "type": "cell-based, human", "procedure": "as §1, §2"}, "[5]": {"system": "[3H]-D-Asp uptake (glutamate transporter activity) in HCT116-Oxa cells", "assay": "[3H]-D-Asp uptake assay, HCT116-Oxa", "type": "cell-based, human", "procedure": "as §1, §2"}, "[6]": {"system": "[3H]-D-Asp uptake in HCT116 and LoVo cells (parental and resistant)", "assay": "[3H]-D-Asp uptake assay, summary over cell lines", "type": "cell-based, human", "procedure": "as §1, §2"}, "[7]": {"system": "[3H]-D-Asp uptake (glutamate transporter activity) in LoVo-Oxa cells", "assay": "[3H]-D-Asp uptake assay, LoVo-Oxa", "type": "cell-based, human", "procedure": "as §1, §2"}, "SLC1A1": {"system": "SLC1A1", "details": "at concentration up to > 400 fold higher than SLC1A3 IC50; cited from earlier work"}, "SLC1A3": {"system": "SLC1A3", "details": "cited from earlier work"}, "[8]": {"details": "Homo sapiens, read-out: IC50, [3H]-D-Asp uptake"}, "[9]": {"details": "Homo sapiens, read-out: pIC50 ± S.E.M., [3H]-D-Asp uptake (converted)"}}, "note": "Where two headings read alike, the source gives them in different places.", "data": [{"smiles": "N[C@@H](CCC(=O)O)C(=O)O", "note": "[L-Glu, L-glutamate]", "values": [{"measurement": "IC50", "setting": "[1]; [8]", "result": 26, "unit": "µM"}, {"measurement": "IC50", "setting": "[1]; [9]", "result": 25.7, "unit": "µM"}, {"measurement": "IC50", "setting": "[2]; [8]", "result": 28, "unit": "µM"}, {"measurement": "IC50", "setting": "[2]; [9]", "result": 28.8, "unit": "µM"}, {"measurement": "IC50", "setting": "[3]; [8]", "result": 21, "unit": "µM"}, {"measurement": "IC50", "setting": "[3]; [9]", "result": 21.4, "unit": "µM"}, {"measurement": "IC50", "setting": "[4]; [8]", "result": 21, "unit": "µM"}, {"measurement": "IC50", "setting": "[4]; [9]", "result": 21.4, "unit": "µM"}, {"measurement": "IC50", "setting": "[5]; [8]", "result": 21, "unit": "µM"}, {"measurement": "IC50", "setting": "[5]; [9]", "result": 21.4, "unit": "µM"}, {"measurement": "IC50", "setting": "[6]; Homo sapiens, read-out: IC50 values, competitive inhibition of [3H]-D-Asp uptake", "result": "20 to 30", "unit": "µM"}, {"measurement": "IC50", "setting": "[7]; [8]", "result": 23, "unit": "µM"}, {"measurement": "IC50", "setting": "[7]; [9]", "result": 22.9, "unit": "µM"}]}, {"smiles": "COc1ccc(C2C(C#N)=C(N)OC3=C2C(=O)CC(c2cccc4ccccc24)C3)cc1", "note": "(stereo not shown) [UCPH]", "values": [{"measurement": "pIC50 ± S.E.M., [3H]-D-Asp uptake", "setting": "[1]; LoVo-PAR, 100 nM [3H]-D-Asp, 6 min, 37 °C", "result": "< 4.0"}, {"measurement": "IC50", "setting": "[1]; LoVo-PAR, 100 nM [3H]-D-Asp, 6 min, 37 °C, read-out: IC50, [3H]-D-Asp uptake", "result": "> 100", "unit": "µM"}, {"measurement": "pIC50 ± S.E.M., [3H]-D-Asp uptake", "setting": "[2]; LoVo-SN38, 100 nM [3H]-D-Asp, 6 min, 37 °C", "result": "< 4.0"}, {"measurement": "IC50", "setting": "[2]; LoVo-SN38, 100 nM [3H]-D-Asp, 6 min, 37 °C, read-out: IC50, [3H]-D-Asp uptake", "result": "> 100", "unit": "µM"}, {"measurement": "activity at SLC1A1", "setting": "SLC1A1", "result": "inactive"}, {"measurement": "pIC50 ± S.E.M., [3H]-D-Asp uptake", "setting": "[3]; HCT116-SN38, 100 nM [3H]-D-Asp, 6 min, 37 °C", "result": "< 4.0"}, {"measurement": "IC50", "setting": "[3]; HCT116-SN38, 100 nM [3H]-D-Asp, 6 min, 37 °C, read-out: IC50, [3H]-D-Asp uptake", "result": "> 100", "unit": "µM"}, {"measurement": "IC50 values for SLC1A3", "setting": "SLC1A3", "result": "high-nanomolar"}, {"measurement": "pIC50 ± S.E.M., [3H]-D-Asp uptake", "setting": "[4]; HCT116-PAR, 100 nM [3H]-D-Asp, 6 min, 37 °C", "result": "< 4.0"}, {"measurement": "IC50", "setting": "[4]; HCT116-PAR, 100 nM [3H]-D-Asp, 6 min, 37 °C, read-out: IC50, [3H]-D-Asp uptake", "result": "> 100", "unit": "µM"}, {"measurement": "pIC50 ± S.E.M., [3H]-D-Asp uptake", "setting": "[5]; HCT116-Oxa, 100 nM [3H]-D-Asp, 6 min, 37 °C", "result": "< 4.0"}, {"measurement": "IC50", "setting": "[5]; HCT116-Oxa, 100 nM [3H]-D-Asp, 6 min, 37 °C, read-out: IC50, [3H]-D-Asp uptake", "result": "> 100", "unit": "µM"}, {"measurement": "effect on basal [3H]-D-Asp uptake", "setting": "[6]; all cell lines, concentrations up to 100 μM", "result": "essentially unaffected"}, {"measurement": "pIC50 ± S.E.M., [3H]-D-Asp uptake", "setting": "[7]; LoVo-Oxa, 100 nM [3H]-D-Asp, 6 min, 37 °C", "result": "< 4.0"}, {"measurement": "IC50", "setting": "[7]; LoVo-Oxa, 100 nM [3H]-D-Asp, 6 min, 37 °C, read-out: IC50, [3H]-D-Asp uptake", "result": "> 100", "unit": "µM"}]}]}
